Data as given in patent US9598396B2, “Tetrahydrophenanthridinones and tetrahydrocyclopentaquinolinones as PARP and tubulin polymerization inhibitors” (Janssen Pharmaceutica NV, priority 2008, dated 2017).

Legend:
TANK-2 enzyme = TANK-2 enzyme (Homo sapiens (Human), UniProt Q9H2K2); test: In vitro Scintillation Proximity Assay (SPA) for TANK-2 inhibitory activity; type: biochemical; settings: auto-poly(ADP-ribosyl)ation, [3H]-NAD+, Ni flash plates (96 or 384 well)
Procedure: C.2.In Vitro Scintillation Proximity Assay (SPA) for TANK-2 Inhibitory Activity
Compounds of the present invention were tested in an in vitro assay based on SPA technology with Ni Flash plates (96 or 384 well).
In principle, the assay relies upon SPA technology for the detection of auto-poly(ADP-ribosyl)ation of TANK-2 protein using [^3H]-nicotinamide adenine dinucleotide ([^3H]-NAD^+) as ADP-ribosyl donor.
A stock solution of 100 nM [^3H]-NAD^+/NAD (0.1 mCi/ml, supplier: Perkin Elmer) and 25 μM NAD (Sigma) was made in assay buffer (60 mM Tris/HCl, pH 7.4; 0.9 mM DTT; 6 mM MgCl2). The TANK-2 enzyme was produced as described in EP1238063. 60 μl of assay buffer, together with 1 μl of compound in DMSO, 20 μl of [^3H]-NAD^+/NAD and 20 μl of TANK-2 enzyme (final concentration 8 μg/ml) was added per well into a 96-well Ni-coated flash plate (Perkin Elmer). After incubation of the mixture for 120 minutes at room temperature, the reaction was terminated by adding 60 μl of stopsolution (42.6 mg NAD in 6 ml H2O). The plates were covered with a plate sealer and placed in a TopCountNXT™ (Packard) for scintillation counting. Values were expressed as counts per minute (cpm). For each experiment, controls (containing TANK-2 enzyme and DMSO without compound), a blank incubation (containing DMSO but no TANK-2 enzyme or compound) and samples (containing TANK-2 enzyme and compound dissolved in DMSO) were run in parallel. All compounds tested were dissolved and eventually further diluted in DMSO. In first instance, compounds were tested at a concentration of 10^−5M. […] In each test, the blank value was subtracted from both the control and the sample values. The control sample represented maximal TANK-2 enzyme activity. For each sample, the amount of cpm was expressed as a percentage of the mean cpm value of the controls. […] Herein the effects of test compounds are expressed as pIC50 (the negative log value of the IC50-value). As reference compounds, 3-aminobenzamide and 4-amino-1,8-naphtalimide were included to validate the SPA assay. Herein the assay was described using 96-well plates. In the assay using 384-well plates the same final concentrations were used and volumes were adapted.

[1] = tested on: Human colon carcinoma HCT116 cells; test: Detection of antiproliferative activity (Alamar Blue assay); type: cell-based; settings: HCT-116, 96 h, 4-day incubation, read-out: Cellular assay HCT116 pIC50 (converted)
Procedure: Example C.4 Detection of Antiproliferative Activity
Human colon carcinoma HCT116 cells obtained from the ATCC were cultured in McCoy's 5A medium supplemented with 2 mM L-Glutamine, 50 μg/ml gentamicin and 10% heat inactivated fetal calf serum.
Reagents used in the Alamar Blue Assay
Resazurin was purchased from Aldrich (Prod. No. 199303). Potassium ferrocyanide, potassium ferricyanide, KH2PO4 and K2HPO4 were purchased from Sigma (Prod. Nos. P9387, P8131, P5655 and P8281, respectively).
Potassium Phosphate Buffer 0.1 M (PPB) was made as follows: 2.72 gram KH2PO4 and 13.86 gram K2HPO4 were dissolved in 500 ml milli-Q H2O, the pH was adjusted to pH 7.4 and the volume was brought to 1 liter with milli-Q H2O; the buffer was filter sterilised and stored at room temperature. Resazurin stock solution (PPB-A) was prepared fresh by dissolving 45 mg resazurin in 15 ml PBS. 30 mM potassium ferricyanide (PPB-B) was prepared by dissolving 0.987 gram potassium ferricyanide in 100 ml PPB. 30 mM potassium ferrocyanide (PPB-C) was prepared by dissolving 1.266 gram potassium ferrocyanide in 100 ml PPB.
Mixture of PPB-A, PPB-B and PPB-C was prepared by mixing equal volumes of the respective solutions. Resazurin work solution (herein termed “Alamar Blue” solution) was prepared by diluting said mixture 20× (vol/vol) in PPB and filter sterilising; the Alamar Blue solution could be kept at 4° C. for a maximum of 2 weeks.
Procedure of the Alamar Blue Assay
For experiments in 384 wells plates the cells were seeded at a density of 4.5×10^3 cells/ml in Falcon 384-well culture plates (Life Technologies, Merelbeke, Belgium), black with clear bottom, in 45 μl culture medium. Cells were allowed to adhere to plastic for 24 hours. The tested compound was pre-diluted (1/50 in culture medium) and 5 μl pre-diluted compound was added to the wells. Following 4-day incubation, 10 μl of the Alamar Blue solution was added to each well and the cells were further incubated for 4 hours (HCT116) or 24 hours (PC-3) at 37° C. The fluorescence intensity was measured for each well on a Fluorescence plate reader (Fluorskan, Labsystems, 540 nm excitation and 590 nm emission)
The antiproliferative activity was calculated as percentage of remaining viable cells in treated versus control (untreated cells) conditions. Within an experiment, the result for each experimental condition is the mean of 3 replicate wells. When appropriate, the experiments were repeated to establish full concentration-response curves. […] Herein the effects of tested compounds are expressed as pIC50 (the negative log value of the IC50 value) (see Table 3).

Human PARP-1 enzyme = Human PARP-1 enzyme (Homo sapiens (Human), UniProt P09874); test: In vitro Scintillation Proximity Assay (SPA) for PARP-1 inhibitory activity; type: biochemical; settings: nicked DNA activated PARP-1, [3H]-NAD+, biotinylated histones
Procedure: C.1.In Vitro Scintillation Proximity Assay (SPA) for PARP-1 Inhibitory Activity
Compounds of the present invention were tested in an in vitro assay based on SPA technology (proprietary to GE healthcare).
In principle, the assay relies upon the well established SPA technology for the detection of poly(ADP-ribosyl)ation of biotinylated target proteins, i.e histones. This ribosylation is induced using nicked DNA activated PARP-1 enzyme and [^3H]-nicotinamide adenine dinucleotide ([^3H]-NAD^+) as ADP-ribosyl donor.
Histones (type II-A, supplier: Sigma) were biotinylated using the biotinylation kit of Amersham and stored aliquoted at −20° C. A stock solution of 100 mg/ml SPA poly(vinyl toluene) (PVT) beads (supplier: Amersham) was made in PBS. A stock solution of 61.6 nM […] was made by adding [^3H]-NAD^+ (0.1 mCi/ml, supplier: Perkin Elmer) to incubation buffer (50 mM Tris/HCl, pH 8; 0.2 mM DTT; 4 mM MgCl2). A solution of 4 mM NAD^+ (supplier: Sigma) was made. Human PARP-1 enzyme was obtained from Trevigen. Biotinylated histones and PVT-SPA beads were mixed and pre-incubated for 30 minutes at room temperature. PARP-1 enzyme (concentration was lot dependent) was mixed with the nicked DNA and the mixture was pre-incubated for 30 minutes at 4° C. Equal parts of this histones/PVT-SPA beads solution and PARP-1 enzyme/DNA solution were mixed and 75 μl of this mixture together with 1 μl of compound in DMSO and 25 μl of [^3H]-NAD^+was added per well into a 96-well microtiterplate. The final concentrations in the incubation mixture were 2 μg/ml for the biotinylated histones, 2 mg/ml for the PVT-SPA beads, 0.25 μg/ml for the nicked DNA and between 0.1-0.2 μg/ml for the PARP-1 enzyme. After incubation of the mixture for 20 minutes at room temperature, the reaction was terminated by adding 100 μl of 4 mM NAD^+ in water (final concentration 2 mM) and plates were mixed. The beads were sedimented by centrifugation (10 min, 800 rpm) and plates transferred to a TopCountNXT™ (Packard) for scintillation counting, values were expressed as counts per minute (cpm). For each experiment, controls (containing PARP-1 enzyme and DMSO without compound), a blank incubation (containing DMSO but no PARP-1 enzyme, no DNA or compound) and samples (containing PARP-1 enzyme, DNA and compound dissolved in DMSO) were run in parallel. All compounds tested were dissolved and eventually further diluted in DMSO. A dose-response curve was made wherein the compounds were tested at concentrations between 10^−5M and 3×10^−9M. In each test, the blank value was subtracted from both the control and the sample values. The control sample represented maximal PARP-1 enzyme activity. For each sample, the amount of cpm was expressed as a percentage of the mean cpm value of the controls. […] Herein the effects of test compounds are expressed as pIC50 (the negative log value of the IC50-value). As a reference compound, 4-amino-1,8-naphthalimide was included to validate the SPA assay.

TANK-2 enzyme, sequence (Q9H2K2 whole entry): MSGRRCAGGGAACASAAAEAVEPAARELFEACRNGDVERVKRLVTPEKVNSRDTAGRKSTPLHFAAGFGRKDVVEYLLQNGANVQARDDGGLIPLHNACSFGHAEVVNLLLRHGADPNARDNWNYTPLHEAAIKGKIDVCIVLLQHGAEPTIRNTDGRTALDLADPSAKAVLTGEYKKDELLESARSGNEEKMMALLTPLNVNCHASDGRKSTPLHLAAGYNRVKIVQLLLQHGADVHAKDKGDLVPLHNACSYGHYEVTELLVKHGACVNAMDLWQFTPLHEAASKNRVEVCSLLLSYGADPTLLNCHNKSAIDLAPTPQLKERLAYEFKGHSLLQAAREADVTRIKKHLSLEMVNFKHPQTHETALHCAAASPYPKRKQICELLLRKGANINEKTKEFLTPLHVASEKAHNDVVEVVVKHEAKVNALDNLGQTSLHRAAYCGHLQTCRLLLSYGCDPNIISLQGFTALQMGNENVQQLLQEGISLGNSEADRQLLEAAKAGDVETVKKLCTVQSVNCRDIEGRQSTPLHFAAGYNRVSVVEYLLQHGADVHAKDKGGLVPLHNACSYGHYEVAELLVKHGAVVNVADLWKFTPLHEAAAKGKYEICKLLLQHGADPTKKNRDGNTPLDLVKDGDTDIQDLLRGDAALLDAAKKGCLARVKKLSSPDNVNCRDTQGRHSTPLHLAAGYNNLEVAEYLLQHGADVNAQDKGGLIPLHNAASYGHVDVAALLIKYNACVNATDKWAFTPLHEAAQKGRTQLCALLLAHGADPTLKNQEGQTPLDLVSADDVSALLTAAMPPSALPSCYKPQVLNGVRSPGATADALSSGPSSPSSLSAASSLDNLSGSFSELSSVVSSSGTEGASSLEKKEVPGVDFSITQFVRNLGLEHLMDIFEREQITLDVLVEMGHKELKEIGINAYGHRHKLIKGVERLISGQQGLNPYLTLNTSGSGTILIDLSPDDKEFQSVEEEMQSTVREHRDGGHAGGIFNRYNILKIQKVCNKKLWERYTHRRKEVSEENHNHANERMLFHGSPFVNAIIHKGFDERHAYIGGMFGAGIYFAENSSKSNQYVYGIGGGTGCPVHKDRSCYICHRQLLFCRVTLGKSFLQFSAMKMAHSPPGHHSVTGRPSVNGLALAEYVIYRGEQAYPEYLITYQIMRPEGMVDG
Human PARP-1 enzyme, sequence (P09874 whole entry): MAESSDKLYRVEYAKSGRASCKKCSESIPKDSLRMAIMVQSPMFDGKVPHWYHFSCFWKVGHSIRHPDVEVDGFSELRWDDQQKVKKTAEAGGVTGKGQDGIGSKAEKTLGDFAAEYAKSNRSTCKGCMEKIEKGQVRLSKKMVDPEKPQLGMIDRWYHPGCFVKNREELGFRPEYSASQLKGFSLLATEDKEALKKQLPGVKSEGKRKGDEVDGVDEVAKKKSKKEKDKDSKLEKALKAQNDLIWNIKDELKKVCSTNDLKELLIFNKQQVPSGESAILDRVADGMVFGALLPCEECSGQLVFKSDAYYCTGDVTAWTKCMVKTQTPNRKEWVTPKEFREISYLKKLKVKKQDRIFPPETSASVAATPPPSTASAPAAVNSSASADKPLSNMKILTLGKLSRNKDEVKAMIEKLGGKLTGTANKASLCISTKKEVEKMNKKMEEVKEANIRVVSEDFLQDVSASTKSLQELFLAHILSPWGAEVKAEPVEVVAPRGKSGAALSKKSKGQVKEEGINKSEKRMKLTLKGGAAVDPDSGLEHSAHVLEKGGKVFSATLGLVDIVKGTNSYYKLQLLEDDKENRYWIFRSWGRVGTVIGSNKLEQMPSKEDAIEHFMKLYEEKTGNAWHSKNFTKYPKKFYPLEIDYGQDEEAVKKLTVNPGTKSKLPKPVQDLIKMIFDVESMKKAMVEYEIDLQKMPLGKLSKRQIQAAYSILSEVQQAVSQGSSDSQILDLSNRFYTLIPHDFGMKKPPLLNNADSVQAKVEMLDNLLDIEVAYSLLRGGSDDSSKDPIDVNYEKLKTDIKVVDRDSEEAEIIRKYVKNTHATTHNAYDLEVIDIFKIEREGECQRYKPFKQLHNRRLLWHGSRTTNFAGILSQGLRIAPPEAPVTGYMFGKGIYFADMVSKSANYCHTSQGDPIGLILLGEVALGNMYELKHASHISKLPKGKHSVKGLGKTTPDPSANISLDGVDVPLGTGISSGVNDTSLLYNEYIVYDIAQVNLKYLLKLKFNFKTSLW

| SMILES | in vitro SPA assay TANK-2 pIC50 (TANK-2 enzyme) | IC50 [1] | in vitro SPA assay PARP-1 pIC50 (Human PARP-1 enzyme) | IC50 (TANK-2 enzyme; read-out: in vitro SPA assay TANK-2 pIC50 (converted)) | IC50 (Human PARP-1 enzyme; read-out: in vitro SPA assay PARP-1 pIC50 (converted)) |
| --- | --- | --- | --- | --- | --- |
| CC(C#N)(Cc1cc(Cl)nc(Cl)c1)c1ccc2c3c(c(=O)[nH]c2c1)CCCC3 (stereo not drawn) [Co. No. 9] | 6.35 | 158 nM | 7.20 | – | – |
| CC(C#N)(Cc1cccc(OC(F)(F)F)c1)c1ccc2c3c(c(=O)[nH]c2c1)CCCC3 (stereo not drawn) [Co. No. 10] | 7.23 | 186 nM | 6.66 | – | – |
| Cn1nc(CC(C)(C#N)c2ccc3c4c(c(=O)[nH]c3c2)CCCC4)c2ccccc21 (stereo not drawn) [Co. No. 12] | 7.37 | 178 nM | 7.34 | – | – |
| Cn1c(CC(C)(C#N)c2ccc3c4c(c(=O)[nH]c3c2)CCCC4)nc2ccccc21 (stereo not drawn) [Co. No. 13] | 7.37 | 269 nM | 7.38 | – | – |
| COC(=O)c1cccc(CC(C)(C#N)c2ccc3c4c(c(=O)[nH]c3c2)CCCC4)c1 (stereo not drawn) [Co. No. 14] | – | 105 nM | – | 63.1 nM | 97.7 nM |
| CN(CC(C)(C#N)c1ccc2c3c(c(=O)[nH]c2c1)CCCC3)C(=O)c1ccccc1 (stereo not drawn) [Co. No. 18] | – | > 10000 nM | – | – | – |
| CN(Cc1ccc(C#N)cc1)CC(C)(C#N)c1ccc2c3c(c(=O)[nH]c2c1)CCCC3 (stereo not drawn) [Co. No. 19] | 7.19 | 589 nM | – | – | – |

Further lines, results first:

| in vitro SPA assay TANK-2 pIC50 (TANK-2 enzyme) | IC50 [1] | in vitro SPA assay PARP-1 pIC50 (Human PARP-1 enzyme) | IC50 (TANK-2 enzyme; read-out: in vitro SPA assay TANK-2 pIC50 (converted)) | IC50 (Human PARP-1 enzyme; read-out: in vitro SPA assay PARP-1 pIC50 (converted)) | SMILES |
| --- | --- | --- | --- | --- | --- |
| 7.43 | > 10000 nM | 7.33 | – | – | C[C@@](C#N)(Cc1ccccc1)c1ccc2c3c(c(=O)[nH]c2c1)CCCC3 (single isomer, unassigned) [Co. No. 2] |
| 7.48 | 158 nM | 7.26 | – | – | C[C@](C#N)(Cc1ccccc1)c1ccc2c3c(c(=O)[nH]c2c1)CCCC3 (single isomer, unassigned) [Co. No. 3] |
| 7.40 | > 10000 nM | 7.80 | – | – | C[C@@](C#N)(Cc1cccc(F)c1)c1ccc2c3c(c(=O)[nH]c2c1)CCCC3 (single isomer, unassigned) [Co. No. 5a] |
| 7.47 | 97.7 nM | 7.44 | – | – | C[C@](C#N)(Cc1cccc(F)c1)c1ccc2c3c(c(=O)[nH]c2c1)CCCC3 (single isomer, unassigned) [Co. No. 5b] |
| 7.45 | 155 nM | 7.06 | – | – | COc1cccc(CC(C)(C#N)c2ccc3c4c(c(=O)[nH]c3c2)CCCC4)c1 (stereo not drawn) [Co. No. 11] |
| 7.39 | 229 nM | 7.48 | – | – | CC(C#N)(Cc1cccc(CO)c1)c1ccc2c3c(c(=O)[nH]c2c1)CCCC3 (stereo not drawn) [Co. No. 15] |
| 7.42 | 417 nM | 6.10 | – | – | CC(C#N)(Cc1cccc(CN)c1)c1ccc2c3c(c(=O)[nH]c2c1)CCCC3 (stereo not drawn) [Co. No. 16] |
